Assay results published in patent publication US11752162B2, “Compounds and compositions for treating solid tumors by intratumoral administration” (Novartis AG, priority 2017, dated 2023).

How the values were obtained:
[1] = Binding efficiency of Compound 15 to aluminum-containing particles (Alhydrogel) in Tris buffer; assay type: physicochemical
Text: The efficiency of binding of compounds of Formula (A) to aluminum-containing particles, as reflected in the percentage (%) bound to aluminum-containing particles, is a function of the (weight/weight) ratio of aluminum-containing particles to compound and to the final concentration (mg/mL) of compound in suspension with aluminum hydroxide. By way of example, the dependence of binding efficiency on the aluminum-containing particles to compound (w/w) ratio is shown in Table 8, where the final concentration of Compound 15 is fixed at 2 mg/mL and the amount of aluminum hydroxide is varied to obtain the desired ratio. The percentage of Compound 15 bound were obtained as described above in the “Materials and Method”, and the suspensions of Compound 15/Alhydrogel® were prepared in 20 mM Tris buffer (pH 7.4) as described above in “Compound 15/Alhydrogel® Suspensions”.
In addition, for (w/w) ratios of aluminum-containing particles to compound of 1.5:1 and below, the binding efficiency has an apparent pH dependence. The effect of pH on binding efficiency is seen in Table 10, where the binding efficiency of Compound 15 at either a ratio of aluminum hydroxide to Compound 15 (w/w) of 1.5:1 or 2:1 is given shown. The percentage of Compound bound was obtained as described above, although in Tris buffer at differing pH values. The suspensions of Compound 15/Alhydrogel® in Tris buffer at various were prepared as described above in “Compound 15/Alhydrogel® Suspensions”.

[2] = Wistar rat subcutaneous PK dose study (Example 9); assay type: in vivo; settings: sc, 600 ug, 600 μg Compound 15 s.c., male Wistar rats, plasma
Procedure: The pharmacokinetic properties of Compound 15 were examined in naïve male Wistar rats following: • a) a single 200 μL subcutaneous (s.c.) injection of 600 μg of free form Compound 15 in 100 mM Tris buffer pH 7.4; • b) a single 200 μL subcutaneous (s.c.) injection of 50 μg of Compound 15 adsorbed to aluminum hydroxide at a 1:2.5 ratio (w/w) of Compound 15 to aluminum hydroxide-Suspension E described below; • c) a single 200 μL subcutaneous (s.c.) injection of 200 μg of Compound 15 adsorbed to aluminum hydroxide at a 1:2.5 ratio (w/w) of Compound 15 to aluminum hydroxide-Suspension D described below, and • d) a single 200 μL subcutaneous (s.c.) injection of 600 μg of Compound 15 adsorbed to aluminum hydroxide at a 1:2.5 ratio (w/w) of Compound 15 to aluminum hydroxide-Suspension C described below.
In this study, male Wistar rats (n=3 per group) were injected subcutaneously (s.c.) with 600 μg free Compound 15 or increasing doses of 50, 200 and 600 μg of Compound 15 absorbed to aluminum hydroxide. An injection volume of 200 μL of Suspension E, Suspension D and Suspension C was used to obtain 50, 200 and 600 μg of Compound 15 absorbed to aluminum hydroxide, respectively. The injection volume of 200 μL per rat was not normalized to body weights of the rats. As described above the Compound 15/aluminum hydroxide ratio for Suspension E, Suspension D and Suspension C was fixed at 1:2.5 w/w.
Blood samples (˜100 μL each) were taken serially via saphenous bleed from each rat until 96 h post dose (see Table 9 for sampling schedule). Blood samples were centrifuged to separate plasma and the plasma samples were frozen at −20° C. prior to analysis using LC/MS/MS (as described in Example 5) to obtain the systemic concentrations of Compound 15.

[3] = Mouse plasma PK, MC38 syngeneic tumor model, one week study; assay type: in vivo; settings: female, C57BL/6, mouse, 100 ug, 100 μg Compound 15, single i.t. injection, MC38 tumor bearing mice
Procedure: A MC38 syngeneic mouse tumor model was used to investigate the systemic exposure of Compound 15 following: • a) a single intra-tumoral (i.t.) injection of 100 μg (˜4 mg/kg) of free form Compound 15 in 20 mM Tris buffer pH 7.4, • b) a single intra-tumoral (i.t.) injection of Compound 15 adsorbed to Alhydrogel® suspension at a 1:1.5 ratio (w/w) of Compound 15 to Alhydrogel®)-Suspension A described below and • c) a single subcutaneous (s.c.) injection of Compound 15 adsorbed to Alhydrogel® suspension at a 1:1.5 ratio (w/w) of Compound 15 to Alhydrogel®-Suspension A described below.
For each mouse, 0.25×10^6 cells were implanted with subcutaneously injection into right flank using a 28½ g needle (1004 injection volume). Female C57BL/6 mice bearing the MC38 tumors were randomized into separate groups (n=3-24 mice per group) 10 days post tumor cell implantation with an average tumor volume range of 95.05-194.36 mm^3.
Approximately 10 days after MC38 tumor implant, tumor bearing mice received a single dose of vehicle, 100 μg of free Compound 15 solution (2 mg/mL) or Compound 15 adsorbed to Alhydrogel (1:1.5 w/w; 97% bound) by direct intra-tumoral (i.t.) injection or subcutaneous (s.c.) injection. The dose volume was 50 μL per animal. Plasma samples were taken up to 7 days post dose at time points indicated in Table 11 (n=3 animal per time point).
Plasma concentrations of Compound 15 were quantified using a Liquid Chromatography/Mass Spectrometry (LC/MS/MS) assay. […] To 20 μL of each plasma sample or appropriately diluted plasma sample, 25 μL of internal standard solution was added, then mixed with 150 μL of extraction solvent (methanol/acetonitrile, 80/20 by volume) to precipitate plasma proteins. The samples were vortexed for 5 minutes then centrifuged with an Eppendorf Centrifuge 5810R (Eppendorf, Hamburg, Germany) at a setting of 4,000 rpm for 10 minutes at 4° C. Aliquot of supernatant (50 μL) was transferred to a clean 96-well plate and mixed with 100 μL of Milli-Q water. The mixed samples were injected (25 μL) onto a Waters XBridge C4 analytical column (2.1×50 mm, 3.5 μm), and mobile phases consisted of 0.1% formic acid in water (solvent A) and 0.1% formic acid in acetonitrile (solvent B). […]
The HPLC system, consisting of Agilent 1200 series binary pump (Agilent Technologies Inc.), Agilent 1200 series micro vacuum degasser (Agilent Technologies Inc.), CTC PAL-HTC autosampler (LEAP Technologies, Carborro, N.C., USA) was interfaced to a AB Sciex API 4000 QTrap mass spectrometer (AB Sciex LLC., Framingham, Mass., USA). […] The lower limit of quantitation (LLOQ) in plasma was 0.25 ng/mL. […]

[4] = female, C57/BL6, mouse, in vivo, iv, 2 mg/kg
[5] = Binding efficiency of Compound 15 to aluminum-containing particles (Alhydrogel) in Tris buffer; assay type: physicochemical; remark: listed apart in the source
in vivo = settings: male, Wistar, rat, iv, 1 mg/kg
Procedure: Note: The pharmacokinetic properties of Compound 15 in 50 mM Tris/0.9% NaCl (pH 7.4) were examined in male Wistar rats following a single 1 mg/kg intravenous bolus administration.

[6] = Compound 15 2 mg/mL, aluminum 0.2 mg/mL, ratio 0.1:1, 20 mM Tris pH 7.4
[7] = Compound 15 2 mg/mL, aluminum 0.5 mg/mL, ratio 0.25:1, 20 mM Tris pH 7.4
[8] = Compound 15 2 mg/mL, aluminum 1 mg/mL, ratio 0.5:1, 20 mM Tris pH 7.4
[9] = Compound 15 2 mg/mL, aluminum 4 mg/mL, ratio 2:1, 20 mM Tris pH 7.4
[10] = Compound 15 0.25 mg/mL, aluminum 0.625 mg/mL, ratio 2.5:1
[11] = Compound 15 0.25 mg/mL, aluminum 5 mg/mL, ratio 20:1
[12] = Compound 15 1 mg/mL, aluminum 2.5 mg/mL, ratio 2.5:1
[13] = Compound 15 2 mg/mL, aluminum 0.1 mg/mL, ratio 0.05:1, 20 mM Tris pH 7.4
[14] = Compound 15 2 mg/mL, aluminum 2 mg/mL, ratio 1:1, 20 mM Tris pH 7.4
[15] = Compound 15 2 mg/mL, aluminum 3 mg/mL, ratio 1.5:1, 20 mM Tris pH 7.4
[16] = Compound 15 3 mg/mL, aluminum 5 mg/mL, ratio 1.7:1
[17] = Compound 15 3 mg/mL, aluminum 7.5 mg/mL, ratio 2.5:1

**Q.** For Cc1cc(OCCOCCC(F)(F)P(=O)(O)O)ccc1CCc1cnc2c(N)nc3cc(CCC(=O)O)ccc3c2c1 [Compound 15, 3-(5-amino-2-(4-(2-(3,3-difluoro-3-phosphonopropoxy)ethoxy)-2-methylphenethyl)benzo[f][1,7]naphthyridin-8-yl)propanoic acid], which “Compound 15 % Bound” value [1, 6] is on record?
**A.** 12.5%

**Q.** And the “Compound 15 % Free” value [1, 6]?
**A.** 87.5%

**Q.** What about the “Compound 15 % Bound” value [1, 7] of the same molecule?
**A.** 25.7%

**Q.** And the “Compound 15 % Free” value [1, 8]?
**A.** 56.5%

**Q.** And the “Compound 15 % Bound” value [1, 9]?
**A.** 99.7%

**Q.** And the “Compound 15 % Free” value [1, 9]?
**A.** 0.3%

**Q.** And the “Compound 15 % Bound” value ([1]; aluminum hydroxide:Compound 15 ratio (w/w) 1.5:1, Tris buffer pH 8)?
**A.** 91.1%

**Q.** And the “Compound 15 % Bound” value ([1]; aluminum hydroxide:Compound 15 ratio (w/w) 2:1, Tris buffer pH 7.5)?
**A.** 99.7%

**Q.** What about the AUC(0-inf) [2] of the same molecule?
**A.** 2560 ng·h/mL

**Q.** And the Cmax [2]?
**A.** 3660 ng/mL

**Q.** And the Tmax [2]?
**A.** 15 min

**Q.** And the half-life [2]?
**A.** 126 min

**Q.** And the AUC(0-inf) [3]?
**A.** 6220 ng·h/mL

**Q.** And the Cmax [3]?
**A.** 10600 ng/mL

**Q.** What about the Tmax [3] of the same molecule?
**A.** 4.98 min

**Q.** What about the half-life ([3]; other: intra-tumoral (i.t.) injection) of the same molecule?
**A.** 159 min

**Q.** What about the “plasma clearance as % of mouse liver blood flow” value [4] of the same molecule?
**A.** ~20%

**Q.** And the “Compound 15 % Bound” value [5, 10]?
**A.** 90.7%

**Q.** And the “Compound 15 % Free” value [5, 10]?
**A.** 9.3%

**Q.** What about the “Compound 15 % Bound” value [5, 11] of the same molecule?
**A.** 97.6%

**Q.** What about the “Compound 15 % Free” value [5, 11] of the same molecule?
**A.** 1.4%

**Q.** What about the “Compound 15 % Bound” value [5, 12] of the same molecule?
**A.** 93.5%

**Q.** What about the “Compound 15 % Free” value [5, 12] of the same molecule?
**A.** 6.5%

**Q.** What about the “Compound 15 % Bound” value [5, 13] of the same molecule?
**A.** 9.6%

**Q.** What about the “Compound 15 % Free” value [5, 13] of the same molecule?
**A.** 90.4%

**Q.** And the “Compound 15 % Free” value [5, 7]?
**A.** 74.3%

**Q.** And the “Compound 15 % Bound” value [5, 8]?
**A.** 43.5%

**Q.** And the “Compound 15 % Bound” value [5, 14]?
**A.** 80.8%

**Q.** What about the “Compound 15 % Free” value [5, 14] of the same molecule?
**A.** 19.2%

**Q.** And the “Compound 15 % Bound” value [5, 15]?
**A.** 97.6%

**Q.** What about the “Compound 15 % Free” value [5, 15] of the same molecule?
**A.** 2.4%

**Q.** And the “Compound 15 % Bound” value [5, 16]?
**A.** 99.6%

**Q.** What about the “Compound 15 % Free” value [5, 16] of the same molecule?
**A.** 0.4%

**Q.** What about the “Compound 15 % Bound” value [5, 17] of the same molecule?
**A.** 97.1%

**Q.** What about the “Compound 15 % Free” value [5, 17] of the same molecule?
**A.** 2.9%

**Q.** And the “Compound 15 % Bound” value ([5]; aluminum hydroxide:Compound 15 ratio (w/w) 1.5:1, Tris buffer pH 7)?
**A.** 98.5%

**Q.** What about the “Compound 15 % Bound” value ([5]; aluminum hydroxide:Compound 15 ratio (w/w) 1.5:1, Tris buffer pH 7.5) of the same molecule?
**A.** 85.9%

**Q.** What about the “Compound 15 % Bound” value ([5]; aluminum hydroxide:Compound 15 ratio (w/w) 2:1, Tris buffer pH 7) of the same molecule?
**A.** 99.3%

**Q.** What about the “Compound 15 % Bound” value ([5]; aluminum hydroxide:Compound 15 ratio (w/w) 2:1, Tris buffer pH 8) of the same molecule?
**A.** 99.1%

**Q.** What about the “% Free Compound 15” value ([5]; dosing formulation of Example 9, 100 mM Tris pH 7.4) of the same molecule?
**A.** 100%

**Q.** What about the “% Free Compound 15” value ([5]; dosing formulation of Example 10, 100 mM Tris pH 7.4) of the same molecule?
**A.** 100%

**Q.** What about the MRT (in vivo) of the same molecule?
**A.** 12 min

**Q.** What about the half-life (in vivo) of the same molecule?
**A.** 72 min

**Q.** And the clearance (in vivo; pH 7.4)?
**A.** 9.2 mL/min/kg
